In PubChem BioAssay (NCI):
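Values below derive from 48-hour exposures of cells grown in 96-well plates, with endpoints linearly interpolated between the two concentrations bracketing the appropriate inhibition level. TGI: concentration producing complete growth inhibition.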

Experiments:
Assay in all cases: NCI anticancer screen, dose series, 48 h
EKVX NSCLC = tested on: EKVX NSCLC
HOP-92 NSCLC = tested on: HOP-92 NSCLC
A549 NSCLC = tested on: A549 NSCLC
HL-60(TB) leukemia = tested on: HL-60(TB) leukemia
COLO 205 colon = tested on: COLO 205 colon
DMS 114 small cell lung = tested on: DMS 114 small cell lung
HOP-18 NSCLC = tested on: HOP-18 NSCLC
IGROV1 ovarian = tested on: IGROV1 ovarian
UACC-257 melanoma = tested on: UACC-257 melanoma
RXF 393 renal = tested on: RXF 393 renal
SK-MEL-2 melanoma = tested on: SK-MEL-2 melanoma
OVCAR-4 ovarian = tested on: OVCAR-4 ovarian
SR leukemia = tested on: SR leukemia
K-562 leukemia = tested on: K-562 leukemia
M19-MEL melanoma = tested on: M19-MEL melanoma
DMS 273 small cell lung = tested on: DMS 273 small cell lung
M14 melanoma = tested on: M14 melanoma
HCT-15 colon = tested on: HCT-15 colon
SK-MEL-5 melanoma = tested on: SK-MEL-5 melanoma
CAKI-1 renal = tested on: CAKI-1 renal

O=C1CCC(c2ccc(Cl)cc2)=NN1c1nsc2ccccc12
TGI (EKVX NSCLC): 88.5 µM
TGI (HOP-92 NSCLC): 71.2 µM
TGI (A549 NSCLC): > 100 µM
TGI (HL-60(TB) leukemia): 46.3 µM
TGI (COLO 205 colon): > 100 µM
TGI (DMS 114 small cell lung): 87.9 µM
TGI (HOP-18 NSCLC): > 100 µM
TGI (IGROV1 ovarian): > 100 µM
TGI (UACC-257 melanoma): 68.8 µM
TGI (RXF 393 renal): 59.6 µM
TGI (SK-MEL-2 melanoma): 38.7 µM
TGI (OVCAR-4 ovarian): > 100 µM
TGI (SR leukemia): 54.8 µM
TGI (K-562 leukemia): 68 µM
TGI (M19-MEL melanoma): > 100 µM
TGI (DMS 273 small cell lung): 74.5 µM

N#CC(NC12CC3CC(CC(C3)C1)C2)c1ccccc1C(F)(F)F (stereo not drawn)
TGI (EKVX NSCLC): > 100 µM
TGI (A549 NSCLC): > 100 µM
TGI (HL-60(TB) leukemia): > 100 µM
TGI (COLO 205 colon): > 100 µM
TGI (DMS 114 small cell lung): > 100 µM
TGI (HOP-18 NSCLC): > 100 µM
TGI (M14 melanoma): > 100 µM
TGI (HCT-15 colon): > 100 µM
TGI (RXF 393 renal): > 100 µM
TGI (SK-MEL-2 melanoma): > 100 µM
TGI (SK-MEL-5 melanoma): > 100 µM
TGI (OVCAR-4 ovarian): > 100 µM
TGI (SR leukemia): > 100 µM
TGI (K-562 leukemia): > 100 µM
TGI (CAKI-1 renal): > 100 µM
TGI (M19-MEL melanoma): > 100 µM
TGI (DMS 273 small cell lung): > 100 µM

O=C1C=CC[C@H]2O[C@@H](COC(=O)Cc3ccccc3)C[C@H]2O1
TGI (EKVX NSCLC): 70.1 µM
TGI (HOP-92 NSCLC): > 100 µM
TGI (A549 NSCLC): > 100 µM
TGI (HL-60(TB) leukemia): 65.2 µM
TGI (COLO 205 colon): > 100 µM
TGI (M14 melanoma): > 100 µM
TGI (HCT-15 colon): 45.7 µM
TGI (IGROV1 ovarian): 54.6 µM
TGI (UACC-257 melanoma): > 100 µM
TGI (SK-MEL-2 melanoma): > 100 µM
TGI (SK-MEL-5 melanoma): > 100 µM
TGI (OVCAR-4 ovarian): 85.9 µM
TGI (SR leukemia): > 100 µM
TGI (K-562 leukemia): > 100 µM
TGI (CAKI-1 renal): > 100 µM
